Test [1] has as its system patients with alpha frequency deficits / theta excess. Also noted: species or system human. Particulars: in vivo.
Test [2] deals with patients with various DSM diagnoses. The following applies: human, in vivo.
Test [3] deals with behaviorally-diagnosed psychiatric conditions (DSM categories). Also on record: species or system human. Particulars: in vivo.

Here are results for nine molecules from patent US7962204B2 (priority 2001, dated 2011).
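For use code of agent in 301.7 Antisocial Personality Disorder in this document: N marks novel agent found effective in subject subgroups.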
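For use code of agent in 301.83 Borderline Personality Disorder in this document: N marks novel agent found effective in subject subgroups.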
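For use in 307.50 Eating Disorder NOS in this document: N marks novel agent found effective in subject subgroups.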
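For use in 307.51 Bulimia Nervosa in this document: N marks novel agent found effective in subject subgroups.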

Consider `O=C1Nc2ccc(Cl)cc2C(c2ccccc2Cl)=NC1O` (centres unmarked) [lorazepam], for which the “response of chronic insomnia of patient 4” value in test [1] was “only slightly responsive”.

Take `N[C@@H](Cc1ccc(O)cc1)C(=O)O` [L-tyrosine]: the “clinical response of granddaughter” value in test [1] was “successfully treated”.

As to `CC(NC(C)(C)C)C(=O)c1cccc(Cl)c1` (centres unmarked) [Bupropion], the “clinical response of patients 1-4” value in test [1] is listed as “responded positively”.

Consider `C[C@H](N)Cc1ccccc1` [D-amphetamine], for which the false negatives in test [2] is 5 patients.

For the molecule `NC(=O)CC[C@H](N)C(=O)O` [GLUTAMINE, reference compound], in test [3], the “agent found effective in 299.00 Autistic Disorder” value is listed as “N”, the “agent found effective in 300.00 Anxiety Disorder NOS” value is listed as “N”, the “agent found effective in 300.02 Generalized Anxiety Disorder” value is on record as “N” and the “agent found effective in 300.22 Agoraphobia Without History of Panic Disorder” value is on record as “N”. In test [3], the “agent found effective in 300.23 Social Phobia” value was “N”, the “agent found effective in 300.29 Specific Phobia” value was “N”, the “agent found effective in 300.3 Obsessive-Compulsive Disorder” value is “N” and the “agent found effective in 309.81 Posttraumatic Stress Disorder” value is reported as “N”. For the same molecule, in test [3], the “agent found effective in Panic Disorder” value was “N” and the “use in Dementia of the Alzheimer's Type” value is “N”. For the same molecule, the “clinical response of granddaughter” value in test [1] is “successfully treated”.

On to `NC(=O)N1c2ccccc2C=Cc2ccccc21` [carbamazepine], for which, in test [1], the “clinical response of patients 1-4” value was “responded positively”.

Regarding `NNCCc1ccccc1` [PHENALZINE], in test [3], the “use code of agent in 301.20 Schizoid Personality Disorder” value was “N”, the “use code of agent in 301.4 Obsessive-Compulsive Personality Disorder” value is “N”, the “use code of agent in 301.50 Histrionic Personality Disorder” value is “N” and the “use code of agent in 301.6 Dependent Personality Disorder” value is “N”. In test [3], the “use code of agent in 301.7 Antisocial Personality Disorder” value is given as “N”, the “use code of agent in 301.82 Avoidant Personality Disorder” value is given as “N”, the “use code of agent in 301.83 Borderline Personality Disorder” value is given as “N” and the “use code of agent in 302.71 Hypoactive Sexual Desire Disorder” value was “N”. In addition, in test [3], the “use code of agent in 307.42 Primary Insomnia” value was “N”; the “use code of agent in 311 Depressive Disorder NOS” value is on record as “N”; the “use code of agent in 316 Psychological Factors Affecting Medical Condition, Atypical Asthma” value was “N”; the “use code of agent in 316 Psychological Factors Affecting Medical Condition, Neurodermatitis” value is “N”. In test [3], the “use code of agent in Bipolar I Disorder” value is “N”; the “use code of agent in Major Depressive Disorder, Recurrent” value was “N”; the “use code of agent in Major Depressive Disorder, Single Episode” value is “N”; the “use in 294.9 Cognitive Disorder NOS” value is on record as “N”. Moreover, in test [3], the “use in 296.89 Bipolar II Disorder” value is recorded as “N”, the “use in 296.90 Mood Disorder NOS” value is listed as “N”, the “use in 299.80 Pervasive Developmental Disorder NOS” value is on record as “N” and the “use in 300.00 Anxiety Disorder NOS” value is “N”. Also, in test [3], the “use in 300.22 Agoraphobia Without History of Panic Disorder” value is on record as “N”, the “use in 300.23 Social Phobia” value is listed as “N”, the “use in 300.29 Specific Phobia” value is “N” and the “use in 300.3 Obsessive-Compulsive Disorder” value is listed as “N”. Besides, in test [3], the “use in 300.4 Dysthymic Disorder” value is recorded as “N”, the “use in 301.13 Cyclothymic Disorder” value is recorded as “N”, the “use in 307.1 Anorexia Nervosa” value is given as “N” and the “use in 307.50 Eating Disorder NOS” value is “N”. Also, in test [3], the “use in 307.51 Bulimia Nervosa” value is “N”, the “use in 309.21 Separation Anxiety Disorder” value is “N”, the “use in 309.81 Posttraumatic Stress Disorder” value is recorded as “N” and the “use in 312.31 Pathological Gambling” value is “N”. Besides, in test [3], the “use in 312.34 Intermittent Explosive Disorder” value was “N”, the “use in 312.39 Trichotillomania” value is on record as “N”, the “use in 312.8 Conduct Disorder” value is “N” and the “use in 313.81 Oppositional Defiant Disorder” value was “N”. For the same molecule, in test [3], the “use in 315.9 Learning Disorder NOS” value was “N”, the “use in Attention-Deficit/Hyperactivity Disorder” value was “N”, the “use in Panic Disorder” value is “N” and the “use of the agent in the diagnostic category (C = common use; N = novel use from rEEG features)” value is recorded as “N”.

For `NC1=NC(=O)C(c2ccccc2)O1` (centres unmarked) [PEMOLINE], in test [3], the “use code of agent in 294.8 Amnestic Disorder” value is listed as “N”, the “use code of agent in 294.9 Cognitive Disorder NOS” value is “N”, the “use code of agent in 296.90 Mood Disorder NOS” value is given as “N” and the “use code of agent in 300.4 Dysthymic Disorder” value was “N”. In test [3], the “use code of agent in 301.13 Cyclothymic Disorder” value is given as “N”, the “use code of agent in 307.1 Anorexia Nervosa” value is reported as “N”, the “use code of agent in 307.50 Eating Disorder NOS” value is given as “N” and the “use code of agent in 307.51 Bulimia Nervosa” value is given as “N”. In addition, in test [3], the “use code of agent in 312.30 Impulse-Control Disorder NOS” value is recorded as “N”, the “use code of agent in 312.31 Pathological Gambling” value is given as “N”, the “use code of agent in 312.8 Conduct Disorder” value is listed as “N” and the “use code of agent in 313.81 Oppositional Defiant Disorder” value was “N”. In test [3], the “use code of agent in 315.9 Learning Disorder NOS” value was “N” and the “use of agent in DSM category (C/N code)” value is “N”.

As to `NC(=O)C[S+]([O-])C(c1ccccc1)c1ccccc1` (centres unmarked) [MODAFINIL], the “use code of agent in 294.8 Amnestic Disorder” value in test [3] was “N”.
